In patent publication US10856562B2, “Flavor composition and edible compositions containing same” (MARS, INCORPORATED, priority 2013, dated 2020):
“Also recorded” adds a separate entry of the source. Square brackets hold non-standard residues; d marks the D form. Ends that are not written are not given here. pGlu = O=C1CC[C@@H](C(=O)O)N1

Tests used:
panelists [1] = experiment: Descriptive profile (Spectrum method) of peptide in 0.2% NaCl solution, in-mouth; format: in vivo, human; conditions: for Astringent, in-mouth perception / Bitter, in-mouth perception / Flinty/Mineral, in-mouth perception / Metallic, in-mouth perception / Numbing, in-mouth perception / Salt, in-mouth perception (mean salt perception in-mouth) / Sour, in-mouth perception / Sweet, in-mouth perception: mean score, 15-point scale
Experimental: Descriptive Profiles (Flavor and Chemical Feeling Factors) of five use levels of a pGlu-Val-Leu flavor composition were determined using the Spectrum™ method. The five use levels were as follows: 0.1 ppb, 0.5 ppb, 1.0 ppb, 10.0 ppb and 40.0 ppb.
Data was collected for the flavor and chemical feeling factors of the product in-mouth for each of the five use levels according to the following protocol. One replication was collected for the flavor and chemical feeling factors of the product in-mouth. 6-9 panelists evaluated per session.
2. Each panelist tasted a test sample (0.1 ppb, 0.5 ppb, 1.0 ppb, 10.0 ppb or 40.0 ppb all in 0.2% NaCl solution). Only one sample was tasted per session.
Descriptive attributes (e.g., taste, flavor and chemical feeling factors) of six use levels of pGlu-Val-Leu (SE-13), pGlu-Val (SE-14) and pGlu-Val-Val (SE-17) flavor composition peptides were determined. The six use levels were as follows: 0.1 ppb, 0.5 ppb, 1.0 ppb, 10.0 ppb, 40.0 ppb and 50.0 ppb.
Data was collected for the attributes of the product in-mouth for the use levels according to the following protocol: • The samples were analyzed for flavor and aftertaste by six-nine members of a panel, trained and experienced in appearance, flavor and texture evaluation using the Spectrum™ method. Samples in solution were evaluated across multiple panel sessions. • The strength of each attribute was rated on a 15-point scale, where 0=none and 15=very strong. • This scale incorporates the ability to use tenths of a point and therefore has the potential of 150 scale differentiations. • The scale may be expanded beyond 15 points to include extreme ratings if necessary.
(§1) Attribute Perception Protocol • The panelists evaluated each sample using the following procedure • Descriptive Profiles (flavor and chemical feeling factors) of 5 levels of salt enhancing solutions • Individual data was collected for the flavor and chemical feeling factors of the product in-mouth • Increased Salt Perception Protocol • Each panelist tasted salt 5 reference (0.35% salt solution)—to ground themselves on salt intensity of 5.0. • Each panelist tasted the test sample (0.1 ppb, 0.5 ppb, 1.0 ppb, 10.0 ppb or 40.0/50.0 ppb all in 0.2% NaCl solution: only one per session) • Each panelist then re-tasted the salt 5 reference and rated it for salt intensity as well as any other basic taste, chemical feeling factor, or aromatic perceived. This captured any increased salt perception indicated by the test sample as well as any other perceptions present. • Return to Baseline Protocol • After evaluating the sample for salt & other perceptions, panelists re-tasted the salt 5 reference at 1 minute intervals until their perception of the salt 5 saltiness intensity had returned to 5.0. Each panelist recorded their salt intensity at each interval and took qualitative notes on other perceptions seen in aftertaste. Sample Preparation
The 0.1, 0.5, 1.0 10, 40, and 50 ppb test samples of the flavor composition peptides were prepared in water as described in table 4.
The panelists evaluated each sample for the attributes described in table 5.

panelists [2] = experiment: Return to baseline protocol: salt reference re-tasted at 1 minute intervals; format: in vivo, human
Experimental: as §1, with “After evaluating the sample for salt and other perceptions (step 3 above), each panelist re-tasted the salt reference (5.0 intensity) at 1 minute intervals until their perception of the saltiness intensity of the reference returned to 5.0. Each panelist recorded salt intensity at each interval and took qualitative notes on other perceptions seen in aftertaste. Attribute” for “Attribute”

[pGlu]-Val [SE-14]
Astringent, in-mouth perception (panelists [1]; 0.1 ppb in 0.2% NaCl): 0.0
Bitter, in-mouth perception (panelists [1]; 0.1 ppb in 0.2% NaCl): 0.0
Flinty/Mineral, in-mouth perception (panelists [1]; 0.1 ppb in 0.2% NaCl): 0.8
Metallic, in-mouth perception (panelists [1]; 0.1 ppb in 0.2% NaCl): 0.3
Numbing, in-mouth perception (panelists [1]; 0.1 ppb in 0.2% NaCl): 0.0
Salt, in-mouth perception (mean salt perception in-mouth) (panelists [1]; 0.1 ppb in 0.2% NaCl): 1.8
Sour, in-mouth perception (panelists [1]; 0.1 ppb in 0.2% NaCl): 0.0
Sweet, in-mouth perception (panelists [1]; 0.1 ppb in 0.2% NaCl): 0.0
Level of the aromatics, basic tastes and chemical feeling factors in-mouth with increasing concentration (panelists [1]; 0.1 to 40.0/50.0 ppb): does not increase
Salt perception in-mouth as the concentration increases (panelists [1]; 0.1 to 40.0/50.0 ppb in 0.2% NaCl): increases slightly; also recorded: slight increase
Astringent, in-mouth perception (panelists [1]; 0.5 ppb in 0.2% NaCl): 0.1
Bitter, in-mouth perception (panelists [1]; 0.5 ppb in 0.2% NaCl): 0.0
Flinty/Mineral, in-mouth perception (panelists [1]; 0.5 ppb in 0.2% NaCl): 0.6
Metallic, in-mouth perception (panelists [1]; 0.5 ppb in 0.2% NaCl): 0.1
Numbing, in-mouth perception (panelists [1]; 0.5 ppb in 0.2% NaCl): 0.0
Salt, in-mouth perception (mean salt perception in-mouth) (panelists [1]; 0.5 ppb in 0.2% NaCl): 2.5
Sour, in-mouth perception (panelists [1]; 0.5 ppb in 0.2% NaCl): 0.0
Sweet, in-mouth perception (panelists [1]; 0.5 ppb in 0.2% NaCl): 0.0
Astringent, in-mouth perception (panelists [1]; 1.0 ppb in 0.2% NaCl): 0.1
Bitter, in-mouth perception (panelists [1]; 1.0 ppb in 0.2% NaCl): 0.0
Flinty/Mineral, in-mouth perception (panelists [1]; 1.0 ppb in 0.2% NaCl): 0.9
Metallic, in-mouth perception (panelists [1]; 1.0 ppb in 0.2% NaCl): 0.1
Numbing, in-mouth perception (panelists [1]; 1.0 ppb in 0.2% NaCl): 0.0
Salt, in-mouth perception (mean salt perception in-mouth) (panelists [1]; 1.0 ppb in 0.2% NaCl): 2.9
Sour, in-mouth perception (panelists [1]; 1.0 ppb in 0.2% NaCl): 0.0
Sweet, in-mouth perception (panelists [1]; 1.0 ppb in 0.2% NaCl): 0.0
Astringent, in-mouth perception (panelists [1]; 10.0 ppb in 0.2% NaCl): 0.0
Bitter, in-mouth perception (panelists [1]; 10.0 ppb in 0.2% NaCl): 0.0
Flinty/Mineral, in-mouth perception (panelists [1]; 10.0 ppb in 0.2% NaCl): 0.9
Metallic, in-mouth perception (panelists [1]; 10.0 ppb in 0.2% NaCl): 0.3
Numbing, in-mouth perception (panelists [1]; 10.0 ppb in 0.2% NaCl): 0.0
Salt, in-mouth perception (mean salt perception in-mouth) (panelists [1]; 10.0 ppb in 0.2% NaCl): 3.3
Sour, in-mouth perception (panelists [1]; 10.0 ppb in 0.2% NaCl): 0.0
Sweet, in-mouth perception (panelists [1]; 10.0 ppb in 0.2% NaCl): 0.0
Astringent, in-mouth perception (panelists [1]; 50.0 ppb in 0.2% NaCl): 0.0
Bitter, in-mouth perception (panelists [1]; 50.0 ppb in 0.2% NaCl): 0.0
Flinty/Mineral, in-mouth perception (panelists [1]; 50.0 ppb in 0.2% NaCl): 0.7
Metallic, in-mouth perception (panelists [1]; 50.0 ppb in 0.2% NaCl): 0.2
Numbing, in-mouth perception (panelists [1]; 50.0 ppb in 0.2% NaCl): 0.0
Salt, in-mouth perception (mean salt perception in-mouth) (panelists [1]; 50.0 ppb in 0.2% NaCl): 3.2
Sour, in-mouth perception (panelists [1]; 50.0 ppb in 0.2% NaCl): 0.0
Sweet, in-mouth perception (panelists [1]; 50.0 ppb in 0.2% NaCl): 0.0
Umami like swelling of lips and tongue, in-mouth (panelists [1]; all levels): Some panelists also experience Umami like swelling of lips and tongue
Umami like feeling factor of lip and tongue swelling (panelists [1]; both in-mouth and after expectoration): Shows umami like feeling factor of lip and tongue swelling
Mean time needed to return to baseline (panelists [2]; 0.1 ppb in 0.2% NaCl): 4.6 min
Mean time needed to return to baseline (min.) (panelists [2]; 0.1 ppb in 0.2% NaCl): 4.6 min
Time needed to return to baseline as the concentration increases (panelists [2]; 0.1 to 40.0/50.0 ppb): increases slightly overall; also recorded: slight increase overall
Mean time needed to return to baseline (panelists [2]; 0.5 ppb in 0.2% NaCl): 4.6 min
Mean time needed to return to baseline (min.) (panelists [2]; 0.5 ppb in 0.2% NaCl): 4.6 min
Mean time needed to return to baseline (panelists [2]; 1.0 ppb in 0.2% NaCl): 3.9 min
Mean time needed to return to baseline (min.) (panelists [2]; 1.0 ppb in 0.2% NaCl): 3.9 min
Mean time needed to return to baseline (panelists [2]; 10.0 ppb in 0.2% NaCl): 5.8 min
Mean time needed to return to baseline (min.) (panelists [2]; 10.0 ppb in 0.2% NaCl): 5.8 min
Mean time needed to return to baseline (panelists [2]; 50.0 ppb in 0.2% NaCl): 6.6 min
Mean time needed to return to baseline (min.) (panelists [2]; 50.0 ppb in 0.2% NaCl): 6.6 min
